According to PubChem BioAssay AID1918935 (Molecular Pharmacology Branch, DTP, NCI, 2023):
“And” between values parts separate entries of the source, which are not always exact repeats. Identical values can stand only once.

System: 324938-238-R-J1-PDC complex spheroid viability
Assay: Anticancer human tumor 324938-238-R-J1-PDC patient-derived bladder carcinoma cell line growth inhibition
Conditions: for viability, T/C: stronger effect = lower value
Summary of the method: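 Complex spheroids of tumor cells with HUVEC and human MSCs, exposed to iadademstat combined with other agents. Each agent tested in half-log steps from near clinical Cmax (else 10 microM top), DMSO ≤0.25%.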

[1] = curve of first compound, second compound 0.1 µM
[2] = curve of first compound, second compound 0.316 µM
[3] = curve of first compound, second compound 1 µM
[4] = curve of first compound, second compound 3.16 µM
[5] = curve of first compound, second compound 10 µM
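Also: spheroids exposed to agents for 7 days before readout.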

`O=C(C=Cn1cnc(-c2cc(C(F)(F)F)cc(C(F)(F)F)c2)n1)NNc1cnccn1` + NC1CC1c1ccc(-c2cccc(O)c2)cc1 was tested, and the IC50 [1] was under 3.16 nM, the IC50 [2] was under 3.16 nM and the IC50 [3] was under 3.16 nM. For the same molecule, the IC50 [4] was under 3.16 nM, the IC50 [5] was under 3.16 nM and the viability, T/C (second compound 0.1 µM, first compound 0.00316 µM) was 46%. The viability, T/C (second compound 0.1 µM, first compound 0.01 µM) was 26.3%, the viability, T/C (second compound 0.1 µM, first compound 0.0316 µM) was 14.1% and the viability, T/C (second compound 0.1 µM, first compound 0.1 µM) was 4.16%. It also gave a viability, T/C (second compound 0.1 µM, first compound 0.316 µM) of 3%, a viability, T/C (second compound 0.1 µM, first compound 1 µM) of 1.86% and a viability, T/C (second compound 0.316 µM, first compound 0.00316 µM) of 42.2%. For the same molecule, the viability, T/C (second compound 0.316 µM, first compound 0.01 µM) was 27%, the viability, T/C (second compound 0.316 µM, first compound 0.0316 µM) was 14.2% and the viability, T/C (second compound 0.316 µM, first compound 0.1 µM) was 5.76%. It also gave a viability, T/C (second compound 0.316 µM, first compound 0.316 µM) of 2.95%, a viability, T/C (second compound 0.316 µM, first compound 1 µM) of 1.73% and a viability, T/C (second compound 1 µM, first compound 0.00316 µM) of 36.1%. For the same molecule, the viability, T/C (second compound 1 µM, first compound 0.01 µM) was 25.1%, the viability, T/C (second compound 1 µM, first compound 0.0316 µM) was 13.8% and the viability, T/C (second compound 1 µM, first compound 0.1 µM) was 5.75%. For the same molecule, the viability, T/C (second compound 1 µM, first compound 0.316 µM) was 2.87%, the viability, T/C (second compound 1 µM, first compound 1 µM) was 2.29% and the viability, T/C (second compound 3.16 µM, first compound 0.00316 µM) was 38.3%. It also gave a viability, T/C (second compound 3.16 µM, first compound 0.01 µM) of 27.7%, a viability, T/C (second compound 3.16 µM, first compound 0.0316 µM) of 15.4% and a viability, T/C (second compound 3.16 µM, first compound 0.1 µM) of 6%. For the same molecule, the viability, T/C (second compound 3.16 µM, first compound 0.316 µM) was 2.83%, the viability, T/C (second compound 3.16 µM, first compound 1 µM) was 2.25% and the viability, T/C (second compound 10 µM, first compound 0.00316 µM) was 42.1%. For the same molecule, the viability, T/C (second compound 10 µM, first compound 0.01 µM) was 30.2%, the viability, T/C (second compound 10 µM, first compound 0.0316 µM) was 20.4% and the viability, T/C (second compound 10 µM, first compound 0.1 µM) was 11.6%. For the same molecule, the viability, T/C (second compound 10 µM, first compound 0.316 µM) was 5.72% and the viability, T/C (second compound 10 µM, first compound 1 µM) was 2.7%.
With `CC1(C)CCC(CN2CCN(c3ccc(C(=O)NS(=O)(=O)c4ccc(NCC5CCOCC5)c([N+](=O)[O-])c4)c(Oc4cnc5[nH]ccc5c4)c3)CC2)=C(c2ccc(Cl)cc2)C1` the viability, T/C (compound 0.0316 µM) was 99% and 104%, the viability, T/C (compound 0.1 µM) was 102% and 108% and the viability, T/C (compound 0.316 µM) was 107% and 109%. For the same molecule, the viability, T/C (compound 1 µM) was 103% and 90.5%, the viability, T/C (compound 3.16 µM) was 90.8% and 83% and the viability, T/C (compound 10 µM) was 28.4% and 20.4%. For the same molecule, the IC50 (curve of compound) was 6730 nM and 5650 nM.
In the case of `CCc1c2c(nc3ccc(O)cc13)-c1cc3c(c(=O)n1C2)COC(=O)[C@]3(O)CC` + NC1CCC(NC2CC2c2ccccc2)CC1, the IC50 [1] is reported as under 0.949 nM, the IC50 [2] is reported as under 0.949 nM and the IC50 [3] is reported as under 0.949 nM. It also gave an IC50 [4] of under 0.949 nM, an IC50 [5] of under 0.949 nM and a viability, T/C (second compound 0.1 µM, first compound 0.000949 µM) of 8.91%. For the same molecule, the viability, T/C (second compound 0.1 µM, first compound 0.003 µM) was 8.28%, the viability, T/C (second compound 0.1 µM, first compound 0.00949 µM) was 5.05% and the viability, T/C (second compound 0.1 µM, first compound 0.03 µM) was 2.05%. The viability, T/C (second compound 0.1 µM, first compound 0.0949 µM) was 0.06%, the viability, T/C (second compound 0.1 µM, first compound 0.3 µM) was 0.13% and the viability, T/C (second compound 0.316 µM, first compound 0.000949 µM) was 7.86%. The viability, T/C (second compound 0.316 µM, first compound 0.003 µM) was 10.2%, the viability, T/C (second compound 0.316 µM, first compound 0.00949 µM) was 6.24% and the viability, T/C (second compound 0.316 µM, first compound 0.03 µM) was 2.68%. It also gave a viability, T/C (second compound 0.316 µM, first compound 0.0949 µM) of 0.06%, a viability, T/C (second compound 0.316 µM, first compound 0.3 µM) of 0.11% and a viability, T/C (second compound 1 µM, first compound 0.000949 µM) of 8.46%. It also gave a viability, T/C (second compound 1 µM, first compound 0.003 µM) of 8.97%, a viability, T/C (second compound 1 µM, first compound 0.00949 µM) of 6.82% and a viability, T/C (second compound 1 µM, first compound 0.03 µM) of 2.81%. The viability, T/C (second compound 1 µM, first compound 0.0949 µM) was 0.06%, the viability, T/C (second compound 1 µM, first compound 0.3 µM) was 0.1% and the viability, T/C (second compound 3.16 µM, first compound 0.000949 µM) was 9.74%. For the same molecule, the viability, T/C (second compound 3.16 µM, first compound 0.003 µM) was 9.76%, the viability, T/C (second compound 3.16 µM, first compound 0.00949 µM) was 7.3% and the viability, T/C (second compound 3.16 µM, first compound 0.03 µM) was 2.95%. The viability, T/C (second compound 3.16 µM, first compound 0.0949 µM) was 0.08%, the viability, T/C (second compound 3.16 µM, first compound 0.3 µM) was 0.11% and the viability, T/C (second compound 10 µM, first compound 0.000949 µM) was 9.49%. It also gave a viability, T/C (second compound 10 µM, first compound 0.003 µM) of 9.84%, a viability, T/C (second compound 10 µM, first compound 0.00949 µM) of 8.1% and a viability, T/C (second compound 10 µM, first compound 0.03 µM) of 2.75%. It also gave a viability, T/C (second compound 10 µM, first compound 0.0949 µM) of 0.08% and a viability, T/C (second compound 10 µM, first compound 0.3 µM) of 0.13%.
In the case of `CC1COCCN1c1cc(C2(S(C)(=N)=O)CC2)nc(-c2ccnc3[nH]ccc23)n1` (centres undefined), the viability, T/C (compound 0.0316 µM) is reported as 104% and 97.9%, the viability, T/C (compound 0.1 µM) is reported as 101% and 108% and the viability, T/C (compound 0.316 µM) is reported as 98.3% and 78.8%. The viability, T/C (compound 1 µM) was 71.4% and 44.7%, the viability, T/C (compound 3.16 µM) was 27.9% and 21.4% and the viability, T/C (compound 10 µM) was 14.6% and 8.79%. The IC50 (curve of compound) was 1760 nM and 853 nM.
